Columns and labels:
[1] = target: Prostaglandin E2 receptor EP2 subtype (Rattus norvegicus, UniProt Q62928); experiment: Binding affinity to rat EP2 receptor expressed in HEK293 cells; assay type: cell-based
[2] = target: T1, Prostaglandin E2 receptor EP4 subtype (Rattus norvegicus, UniProt P43114); experiment: Binding affinity to rat EP4 receptor expressed in HEK293 cells; assay type: cell-based
[3] = target: Prostaglandin E2 receptor EP4 subtype (Rattus norvegicus) (UniProt P43114); experiment: Activity at rat EP4 transfected in HEK293 cells by cAMP accumulation compared to PGE2; assay type: functional, cell-based
Chain of Prostaglandin E2 receptor EP4 subtype (Rattus norvegicus) (P43114 whole entry): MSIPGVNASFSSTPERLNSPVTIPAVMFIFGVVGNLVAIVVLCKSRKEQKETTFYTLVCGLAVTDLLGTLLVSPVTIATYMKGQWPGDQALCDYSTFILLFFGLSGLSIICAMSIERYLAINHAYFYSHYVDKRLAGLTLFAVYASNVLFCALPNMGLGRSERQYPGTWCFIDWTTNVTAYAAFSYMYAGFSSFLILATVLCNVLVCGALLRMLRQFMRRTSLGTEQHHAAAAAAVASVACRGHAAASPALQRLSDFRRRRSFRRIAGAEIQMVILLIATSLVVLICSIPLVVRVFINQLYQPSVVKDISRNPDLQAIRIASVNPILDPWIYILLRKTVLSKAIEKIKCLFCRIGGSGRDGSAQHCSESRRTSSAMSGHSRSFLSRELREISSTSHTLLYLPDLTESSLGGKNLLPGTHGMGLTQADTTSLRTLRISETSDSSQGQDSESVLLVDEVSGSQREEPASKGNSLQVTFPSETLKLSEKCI

Rattus norvegicus [4] = experiment: Increase in cortical thickness at 30 mg/kg, sc 28 days post dose in ovariectomized osteopenic rat; assay type: functional; settings: route subcutaneous
Rattus norvegicus [5] = experiment: Increase in total bone density at 10 mg/kg, sc 28 days post dose in ovariectomized osteopenic rat; assay type: functional; settings: route subcutaneous
[6] = Oral bioavailability in Sprague-Dawley rat; assay type: ADME, organism-based; settings: in vivo
[7] = Half life in iv dosed Sprague-Dawley rat; assay type: ADME, organism-based; settings: in vivo
[8] = Half life in sc dosed Sprague-Dawley rat; assay type: ADME, organism-based; settings: in vivo
[9] = Half life in po dosed Sprague-Dawley rat; assay type: ADME, organism-based; settings: in vivo
Rattus norvegicus [10] = experiment: Increase in cortical content at 30 mg/kg, sc 28 days post dose in ovariectomized osteopenic rat; assay type: functional; settings: route subcutaneous
Rattus norvegicus [11] = experiment: Increase in cortical area at 10 mg/kg, sc 28 days post dose in ovariectomized osteopenic rat; assay type: functional; settings: route subcutaneous
[12] = target: T1, Prostaglandin E2 receptor EP4 subtype; experiment: Activity at rat EP4 transfected in HEK293 cells by cAMP accumulation; assay type: functional, cell-based
Rattus norvegicus [13] = experiment: Volume distribution in sc dosed Sprague-Dawley rat; assay type: ADME, organism-based; settings: in vivo
Rattus norvegicus [14] = experiment: Increase in cortical thickness at 10 mg/kg, sc 28 days post dose in ovariectomized osteopenic rat; assay type: functional; settings: route subcutaneous
Rattus norvegicus [15] = experiment: Increase in total bone content at 10 mg/kg, sc 28 days post dose in ovariectomized osteopenic rat; assay type: functional; settings: route subcutaneous
[16] = Plasma clearance in iv dosed Sprague-Dawley rat
Rattus norvegicus [17] = experiment: Increase in total bone density at 30 mg/kg, sc 28 days post dose in ovariectomized osteopenic rat; assay type: functional; settings: route subcutaneous
Rattus norvegicus [18] = experiment: Increase in total bone content at 30 mg/kg, sc 28 days post dose in ovariectomized osteopenic rat; assay type: functional; settings: route subcutaneous
Rattus norvegicus [19] = experiment: Increase in cortical area at 30 mg/kg, sc 28 days post dose in ovariectomized osteopenic rat; assay type: functional; settings: route subcutaneous
Rattus norvegicus [20] = experiment: Increase in cortical content at 10 mg/kg, sc 28 days post dose in ovariectomized osteopenic rat; assay type: functional; settings: route subcutaneous
[21] = target: T2, Prostaglandin E2 receptor EP1 subtype (Homo sapiens, UniProt P34995); experiment: Binding affinity to human EP1 receptor expressed in HEK293 cells; assay type: cell-based
T2 sequence (P34995 whole entry): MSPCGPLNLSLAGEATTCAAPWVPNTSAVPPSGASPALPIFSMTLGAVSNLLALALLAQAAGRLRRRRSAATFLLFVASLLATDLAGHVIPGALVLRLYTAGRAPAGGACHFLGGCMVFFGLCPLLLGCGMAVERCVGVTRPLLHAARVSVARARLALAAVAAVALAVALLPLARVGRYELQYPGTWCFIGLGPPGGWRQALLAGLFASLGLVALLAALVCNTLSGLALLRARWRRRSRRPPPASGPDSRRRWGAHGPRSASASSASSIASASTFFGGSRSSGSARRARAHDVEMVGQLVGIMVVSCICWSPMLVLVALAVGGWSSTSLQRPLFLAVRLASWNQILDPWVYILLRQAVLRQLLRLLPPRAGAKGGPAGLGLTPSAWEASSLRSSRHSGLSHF

[22] = target: T3, Prostaglandin E2 receptor EP3 subtype (Homo sapiens, UniProt P43115); experiment: Binding affinity to human EP3 receptor expressed in HEK293 cells; assay type: cell-based
T3 sequence (P43115 whole entry): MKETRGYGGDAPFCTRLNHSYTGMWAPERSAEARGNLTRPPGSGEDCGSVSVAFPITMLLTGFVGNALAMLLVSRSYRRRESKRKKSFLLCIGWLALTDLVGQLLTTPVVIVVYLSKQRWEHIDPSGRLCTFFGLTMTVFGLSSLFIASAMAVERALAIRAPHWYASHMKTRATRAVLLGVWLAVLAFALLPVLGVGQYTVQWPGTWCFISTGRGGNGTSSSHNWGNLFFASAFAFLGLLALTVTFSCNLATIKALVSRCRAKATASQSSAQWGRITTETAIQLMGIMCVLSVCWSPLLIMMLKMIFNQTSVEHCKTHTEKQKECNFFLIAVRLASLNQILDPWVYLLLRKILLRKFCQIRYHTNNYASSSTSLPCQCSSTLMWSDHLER

Chain of Prostaglandin E2 receptor EP2 subtype (Q62928 whole entry): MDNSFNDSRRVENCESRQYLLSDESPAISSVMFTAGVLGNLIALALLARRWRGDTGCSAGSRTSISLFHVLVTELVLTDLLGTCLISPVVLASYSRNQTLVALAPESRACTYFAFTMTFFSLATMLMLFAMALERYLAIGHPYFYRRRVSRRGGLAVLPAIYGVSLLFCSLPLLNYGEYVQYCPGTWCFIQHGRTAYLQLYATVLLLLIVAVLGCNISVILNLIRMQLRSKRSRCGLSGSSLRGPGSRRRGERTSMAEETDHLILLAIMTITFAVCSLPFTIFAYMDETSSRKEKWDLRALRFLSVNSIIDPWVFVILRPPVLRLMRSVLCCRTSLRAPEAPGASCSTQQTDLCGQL
T1 sequence (P43114 whole entry): as the sequence (P43114 whole entry) above

Compound | IC50 [1] | IC50 [2] | Activity [3] | EC50 [12] | other results
O=C(O)c1ccc(CCCN2C(=O)CCC2CCC(O)Cc2cccc(F)c2)cc1 (stereo not given) | > 3200 nM | 126 nM |  |  | 
O=C(O)CCCCCCN1C(=O)CC[C@@H]1CC[C@@H](O)CCc1ccccc1 | > 3200 nM | 2710 nM |  |  | 
O=C(O)CCCCCCN1C(=O)CC[C@@H]1CC[C@@H](O)Cc1cccc(C(F)(F)F)c1 | > 3200 nM |  | 75% | 13 nM | Activity (Rattus norvegicus [4]): 124.19%; Activity (Rattus norvegicus [5]): 18.73%; bioavailability [6]: 17%; half-life [7]: 12 min; half-life [8]: 25.8 min; half-life [9]: 25.2 min; Activity (Rattus norvegicus [10]): 57.7%; Activity (Rattus norvegicus [11]): 21.93%; Vdss (Rattus norvegicus [13]): 0.46 L/kg; Activity (Rattus norvegicus [14]): 34.12%; Activity (Rattus norvegicus [15]): 15.34%; clearance [16]: 71 mL/min/kg; Activity (Rattus norvegicus [17]): 23.7%; Activity (Rattus norvegicus [18]): 32.53%; Activity (Rattus norvegicus [19]): 66.92%; Activity (Rattus norvegicus [20]): 29.78%
O=C(O)c1ccc(CCCN2C(=O)CCC2CCC(O)Cc2cccc(Cl)c2)cc1 (stereo not given) | > 3200 nM | 42 nM | 106% | 425 nM | IC50 [21]: > 3200 nM; IC50 [22]: > 3200 nM
O=C(O)c1ccc(CCCN2C(=O)CC[C@@H]2CC[C@@H](O)Cc2cccc(C(F)(F)F)c2)cc1 | > 3200 nM | 70 nM | 105% | 105 nM | 
O=C(O)CCCCCCN1C(=O)CCC1CCC(O)CCc1ccccc1 (stereo not given) | > 3200 nM | > 3200 nM |  |  | 
COCc1cccc(C[C@H](O)CC[C@H]2CCC(=O)N2CCCCCCC(=O)O)c1 | > 3200 nM | 62 nM | 89% | 18 nM | IC50 [21]: > 3200 nM; IC50 [22]: > 2000 nM
O=C(O)c1ccc(CCCN2C(=O)CC[C@@H]2CCC(O)Cc2ccc3ccccc3c2)s1 (stereo not given in full) | > 3200 nM | 65 nM | 73% | 500 nM | 
N#Cc1cccc(C[C@H](O)CC[C@H]2CCC(=O)N2CCCCCCC(=O)O)c1 | > 3200 nM | 388 nM | 104% | 96 nM | 
O=C(O)CCCCCCN1C(=O)CC[C@@H]1CCC(O)Cc1cccc(Oc2ccccc2)c1 (stereo not given in full) | > 3200 nM |  |  |  | IC50 [21]: > 3200 nM; IC50 [22]: > 3200 nM
O=C(O)c1ccc(CCCN2C(=O)CC[C@@H]2CC[C@@H](O)Cc2ccc(F)cc2)s1 | 1200 nM | 70 nM | 70% | 22 nM | 
COCCc1cccc(C[C@H](O)CC[C@H]2CCC(=O)N2CCCCCCC(=O)O)c1 | > 3200 nM | 210 nM | 82% | 92 nM | 
O=C(O)c1ccc(CCCN2C(=O)CC[C@@H]2CC[C@@H](O)Cc2cccc(Cl)c2)s1 | 188 nM | 1.1 nM | 70% | 0.6 nM | 
O=C(O)c1ccc(CCCN2C(=O)CCC2CCC(O)Cc2cccc(Oc3ccccc3)c2)cc1 (stereo not given) | > 3200 nM | 220 nM |  |  | 
O=C(O)c1ccc(CCCN2C(=O)CC[C@@H]2CCC(O)Cc2cccc(-c3ccccc3)c2)s1 (stereo not given in full) | 135 nM | 50 nM | 95% | 203 nM | IC50 [21]: 18600 nM; IC50 [22]: 20000 nM
O=C(O)CCCCCCN1C(=O)CC[C@@H]1CC[C@@H](O)Cc1cccc(OC(F)(F)F)c1 | > 3200 nM | 59 nM | 78% | 50 nM | 
O=C(O)CCCCCCN1C(=O)CC[C@@H]1CC[C@@H](O)Cc1cccc(-c2ccccc2)c1 | > 3200 nM | 337 nM | 101% | 195 nM | 
O=C(O)c1ccc(CCCN2C(=O)CCC2CCC(O)Cc2ccccc2)cc1 (stereo not given) | > 3200 nM | 250 nM |  |  | IC50 [21]: > 3200 nM; IC50 [22]: > 3200 nM
O=C(O)c1ccc(CCCN2C(=O)CC[C@@H]2CCC(O)Cc2ccccc2-c2ccccc2)s1 (stereo not given in full) | 125 nM | 1600 nM |  |  | 
O=C(O)c1ccc(CCCN2C(=O)CCC2CCC(O)Cc2cccc(-c3ccccc3)c2)cc1 (stereo not given) | > 3200 nM | 47 nM | 97% | 440 nM | 
O=C(O)CCCCCCN1C(=O)CCC1CCC(O)Cc1cccc(Cl)c1 (stereo not given) | > 3200 nM | 22 nM | 89% | 8.8 nM | 
O=C(O)CCCCCCN1C(=O)CC[C@@H]1CC[C@@H](O)Cc1cccc(O)c1 | > 3200 nM | 1200 nM | 100% | 170 nM | 
O=C(O)c1ccc(CCCN2C(=O)CC[C@@H]2CCC(O)Cc2ccc(Cl)cc2)s1 (stereo not given in full) | 86 nM | 80 nM | 90% | 40 nM | IC50 [21]: > 3200 nM; IC50 [22]: > 3200 nM
O=C(O)c1ccc(CCCN2C(=O)CCC2CCC(O)Cc2ccc(F)cc2)cc1 (stereo not given) | > 3200 nM | 2770 nM |  |  | IC50 [21]: > 3200 nM; IC50 [22]: > 3200 nM
CCc1ccc(CC(O)CC[C@H]2CCC(=O)N2CCCc2ccc(C(=O)O)s2)cc1 (stereo not given in full) | 1200 nM | 140 nM | 82% | 275 nM | 
O=C(O)c1ccc(CCCN2C(=O)CC[C@@H]2CC[C@@H](O)Cc2cccc(C(F)(F)F)c2)s1 | 483 nM |  | 102% |  | bioavailability [6]: 1%; half-life [7]: 12 min; half-life [8]: 18 min; half-life [9]: 52.2 min; Vdss (Rattus norvegicus [13]): 0.49 L/kg; clearance [16]: 70 mL/min/kg
O=C(O)c1ccc(CCCN2C(=O)CC[C@@H]2CCC(O)Cc2cccc(F)c2)s1 (stereo not given in full) | 640 nM | 17 nM | 97% | 2.4 nM | 
O=C(O)c1ccc(CCCN2C(=O)CC[C@@H]2CCC(O)Cc2ccccc2)s1 (stereo not given in full) | 690 nM | 21 nM | 88% | 1.7 nM | 
O=C(O)CCCCCCN1C(=O)CC[C@@H]1CCC(O)Cc1ccccc1 (stereo not given in full) | > 3200 nM | 54 nM | 114% | 32.5 nM | IC50 [21]: > 3200 nM; bioavailability [6]: 21%; half-life [7]: 6 min; half-life [8]: 21 min; half-life [9]: 27 min; Vdss (Rattus norvegicus [13]): 0.4 L/kg; clearance [16]: 101 mL/min/kg; IC50 [22]: > 3200 nM
